Measured values published in US4329341A, “5-Phenyl-1,3,4,5-tetrahydro-2H-1,4-benzodiazepin-2-ones, and pharmaceutical compositions containing them” (Richter Gedeon Vegyeszeti Gyar Rt, priority 1980, dated 1982).

Columns and labels:
CFLP male mice = assay: Potentiation of activity of sodium-barbital (measurement of the sedative activity); type: in vivo; conditions: for Number of the test animals fallen asleep in % of the control: 20 mg./kg. i.p., after one hour Na-barbital 100 mg./kg. i.p.
Method: Determination of the potentiation of activity of sodium-barbital (measurement of the sedative activity)
In the tests carried out [see S. Goldschmidt and R. Wohr: Z. physiol. Chem. 308, 9 /1957/; D. V. Parker: J. Pharm. Pharmac. 27, 729 /1975/] the test animals were pretreated with a 20 mg./kg. i.p. dose of the test compounds of the general formula (I) and after one hour were administered a 100 mg./kg. i.p. dose of Na-barbital.
(§1) As test animals CFLP male mice weighing […]. were used.

[1] = test system: NADPH-depending multifunctional oxydase enzyme system of the liver; assay: Hexobarbital-induced sleeping time (measurement of enzyme inducing activity); type: in vivo, CFLP male mice; conditions: for Hexobarbital-sleeping time, 1-hour pretreatment, average ± SE / Hexobarbital-sleeping time, 1-hour pretreatment, Δ% (percentage change related to the control) / Hexobarbital-sleeping time, 24-hour pretreatment, Δ% (percentage change related to the control) / Hexobarbital-sleeping time, 24-hour pretreatment, average ± SE: 40 mg./kg. p.o., hexobarbital 60 mg./kg. i.v.; for Hexobarbital-sleeping time, 1-hour pretreatment, average ± SE: control 35 ± 2.38; for Hexobarbital-sleeping time, 1-hour pretreatment, Δ% (percentage change related to the control) / Hexobarbital-sleeping time, 24-hour pretreatment, average ± SE: x: p < 0.001 compared to the control; for Hexobarbital-sleeping time, 24-hour pretreatment, average ± SE: control 34 ± 2.60
Description: The biological activity and duration of activity of different endogenic and exogenic compounds are greatly influenced by the activity of the NADPH- (nicotinic acid amide-adenine-dinucleotide phosphate-) depending multifunctional oxydase enzyme system of the liver. There are numerous compounds known in the art, showing various pharmacological activities, which are capable of increasing or inducing the activity of the metabolising, multifunctional oxydase enzyme system of the liver [see e.g. Sher, S.P.: Toxicol. appl. Pharmacol. 18, 780 /1971/; G. J. Mannering: in A. Burger's Selected Pharmacological Testing Methods, 51-119 S., Marcel Dekker Inc., New York /1968/]. […] Therefore phenobarbital can successfully be used in the treatment of Czigler-Najjar and Cilbert syndroms and neonatal hyperbilirubinemia, though due to its hypnotic-sedative effect the inducing activity of this compound is not optimal [Vessel and J. E. Page: J. Clin. Invest. 48, 2202 /1969/; J. T. Wilson: Pediatrics 43, 424 /1969/].
For screening the enzyme inducing activity the change in the hexobarbital-induced sleeping time is conventionally measured. The inducing activity of the compounds of the general formula (I) according to the invention was compared to the corresponding activity of phenobarbital and to their own sedative effect, using the following test methods.
Determination of the sleeping time induced by hexobarbital (measurement of enzyme inducing activity)
After (a) one hour and (b) after 24-hour pretreatment with a 40 mg./kg. p.o. dose of the test compounds, the groups of test animals were administered a 60 mg./kg. i.v. dose of hexobarbital.
as §1

Acute toxicity (p.o.) = assay: Acute toxicity (p.o.); parameters: species or system CFLP male mice; conditions: mouse, in vivo, po, 14 days
Method: To the test animals 250 and 500 mg./kg. doses, resp. of the test compounds were administered orally and the number of the dead animals was registered for 14 days.
as §1

[2] = test system: metabolysing enzyme system of the liver; conditions: diseases caused by defectiveness of the metabolysing enzyme system of the liver; cited from earlier work

Structure (SMILES) | Number of the test animals fallen asleep in % of the control (CFLP male mice) | Hexobarbital-sleeping time, 1-hour pretreatment, average ± SE ([1]; 1-hour pretreatment) [min] | Hexobarbital-sleeping time, 1-hour pretreatment, Δ% (percentage change related to the control) ([1]; 1-hour pretreatment) | Hexobarbital-sleeping time, 24-hour pretreatment, Δ% (percentage change related to the control) [1] [%] | Hexobarbital-sleeping time, 24-hour pretreatment, average ± SE [1] [min] | Sleeping time 1 hour after administration, in words ([1]; 1-hour pretreatment) | Narcotic effect of Na-barbital alone (CFLP male mice; 100 mg./kg. i.p. Na-barbital) | Increase of sleeping time relative to its original value ([1]; 1-hour pretreatment) [times] | LD50 at 336 h (Acute toxicity (p.o.)) [mg/kg] | Inducing activity in human diseases, in words [2]
C[C@@H]1C(=O)N(C)c2ccc(Cl)cc2[C@@H](c2ccccc2)N1C(N)=O (relative stereo) [Example 5, 3RS,5RS-1,3-Dimethyl-4-carbamoyl-5-phenyl-7-chloro-1,3,4,5-tetrahydro-2H-1,4-benzodiazepin-2-one] | 20% | 37.3 ± 3.01 | +6% | -73 | 9 ± 0.43 | most favourable properties | – | – | – | –
C[C@@H]1N[C@@H](c2ccccc2)c2cc(Cl)ccc2N(C)C1=O [Example 1, 3S,5S-1,3-Dimethyl-5-phenyl-7-chloro-1,3,4,5-tetrahydro-2H-1,4-benzodiazepin-2-one] | 50% | 67.2 ± 7.01 | +91% | -43 | 19.5 ± 1.84 | – | – | – | – | –
C[C@H]1N[C@H](c2ccccc2)c2cc(Cl)ccc2N(C)C1=O [Example 2, 3R,5R-1,3-Dimethyl-5-phenyl-7-chloro-1,3,4,5-tetrahydro-2H-1,4-benzodiazepin-2-one] | .phi. | 61.2 ± 5.21 | +73% | -61 | 13.3 ± 0.54 | – | – | – | – | –
C[C@H]1C(=O)N(C)c2ccc(Cl)cc2[C@H](c2ccccc2)N1C(N)=O [Example 3, 3S,5S-1,3-Dimethyl-4-carbamoyl-5-phenyl-7-chloro-1,3,4,5-tetrahydro-2H-1,4-benzodiazepin-2-one] | 0% | 43.3 ± 4.18 | +23% | -65 | 12.0 ± 0.83 | most favourable properties | – | – | – | –
C[C@@H]1C(=O)N(C)c2ccc(Cl)cc2[C@@H](c2ccccc2)N1C(N)=O [Example 4, 3R,5R-1,3-Dimethyl-4-carbamoyl-5-phenyl-7-chloro-1,3,4,5-tetrahydro-2H-1,4-benzodiazepin-2-one] | .phi. | 43.3 ± 5.01 | +23% | -71 | 9.9 ± 0.62 | most favourable properties | – | – | – | –
CCC1(CC)C(=O)NC(=O)NC1=O [Na-barbital, sodium-barbital, reference compound] | – | – | – | – | – | – | no narcotic effect | – | – | –
CCC1(c2ccccc2)C(=O)NC(=O)NC1=O [Phenobarbital, reference compound] | 60% | 86.2 ± 7.51 | +145% | -69 | 11.2 ± 0.35 | – | – | ~3 | 191 | shows an inducing activity in the case of human diseases
